Laboratory results taken from patent US8563714B2, “Bridged spiro [2.4] heptane derivatives as ALX receptor and/or FPRL2 agonists” (Actelion Pharmaceuticals Ltd., priority 2009, dated 2013).

What was measured:
[1] = molecular target: T1, human ALX receptor (Homo sapiens, UniProt P25090); assay: Intracellular calcium measurements (FLIPR), agonistic activity in HEK293-hALXR-Gα16 cells; assay type: cell-based; settings: Fluo-4 calcium FLIPR, normalized to WKYMVm 10 nM
T1 construct: expressed in transfected cells; host or cells: HEK293 (HEK293-hALXR-Gα16)
T1 sequence (P25090 1-351): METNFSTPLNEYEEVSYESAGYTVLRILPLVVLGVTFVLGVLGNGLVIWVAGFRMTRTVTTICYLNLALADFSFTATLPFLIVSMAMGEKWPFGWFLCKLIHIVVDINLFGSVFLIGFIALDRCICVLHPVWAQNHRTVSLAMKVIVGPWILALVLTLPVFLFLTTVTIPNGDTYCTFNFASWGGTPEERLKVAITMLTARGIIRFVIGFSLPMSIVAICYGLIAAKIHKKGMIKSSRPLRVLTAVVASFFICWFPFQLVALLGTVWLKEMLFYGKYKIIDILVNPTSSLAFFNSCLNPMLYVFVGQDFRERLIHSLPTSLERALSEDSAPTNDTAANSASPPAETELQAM
Summary of the method: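 HEK293 cells expressing hALXR and Gα16 were loaded with 1 μM Fluo-4 AM and 20 mM HEPES for 60 min at 37°C, then exposed to serially diluted compound. FLIPR fluorescence was read at ex 488/em 540 nm. Baseline-subtracted peak responses were normalized to 10 nM WKYMVm.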

[2] = molecular target: T2, human FPRL2 (Homo sapiens, UniProt P25089); assay: Intracellular calcium measurements (FLIPR), agonistic activity in HEK293-hFPRL2-Gα16 cells; assay type: cell-based; settings: Fluo-4 calcium FLIPR, normalized to GLY14-Humanin 100 nM
T2 construct: expressed in transfected cells; host or cells: HEK293 (HEK293-hFPRL2-Gα16)
T2 sequence (P25089 1-353): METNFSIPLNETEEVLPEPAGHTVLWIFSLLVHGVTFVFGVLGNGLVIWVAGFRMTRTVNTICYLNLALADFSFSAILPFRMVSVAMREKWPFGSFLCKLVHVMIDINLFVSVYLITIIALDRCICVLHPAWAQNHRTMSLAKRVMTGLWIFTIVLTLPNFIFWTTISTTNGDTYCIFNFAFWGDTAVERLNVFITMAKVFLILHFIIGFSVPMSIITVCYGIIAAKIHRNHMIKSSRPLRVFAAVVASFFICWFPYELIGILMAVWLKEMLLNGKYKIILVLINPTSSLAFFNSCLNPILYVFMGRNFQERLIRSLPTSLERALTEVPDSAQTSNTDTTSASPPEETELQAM
Summary of the method: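 Peak values after baseline subtraction are expressed relative to 100 nM Gly14-Humanin; compounds diluted in assay buffer from 10 mM DMSO stocks.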

| EC50 [1] | EC50 [2] | Compound |
| --- | --- | --- |
| 8.9 nM | 1020 nM | O=C(Nc1ncc(Br)s1)C1C(C(=O)NC2CCNC2)C2CCC1C21CC1 [Example 412, (5R)—N^5-(5-Bromothiazol-2-yl)-(6R)—N^6-(pyrrolidin-3-yl)-(4S,7R)-[4,7-ethylene-spiro[2.4]heptane]-5,6-dicarboxamide] |
| 13 nM | 2110 nM | CNCCNC(=O)[C@H]1[C@H](C(=O)Nc2ncc(Br)s2)[C@@H]2CC[C@H]1C21CC1 [Example 413, (5R)—N^5-(5-Bromothiazol-2-yl)-(6R)—N^6-(2-(N-methylamino)-ethyl)-(4S,7R)-[4,7-ethylene-spiro[2.4]heptane]-5,6-dicarboxamide] |
| 14 nM | 773 nM | CNCCCNC(=O)[C@H]1[C@H](C(=O)Nc2ncc(Br)s2)[C@@H]2CC[C@H]1C21CC1 [Example 414, (5R)—N^5-(5-Bromothiazol-2-yl)-(6R)—N^6-(3-(N-methylamino)-propyl)-(4S,7R)-[4,7-ethylene-spiro[2.4]heptane]-5,6-dicarboxamide] |
| 9.1 nM | 354 nM | O=C(NC1CCCNC1)[C@H]1[C@H](C(=O)Nc2ncc(Br)s2)[C@@H]2CC[C@H]1C21CC1 (stereo partly drawn) [Example 415, (5R)—N^5-(5-Bromothiazol-2-yl)-(6R)—N^6-(piperidin-3-yl)-(4S,7R)-[4,7-ethylene-spiro[2.4]heptane]-5,6-dicarboxamide] |
| 8.3 nM | 479 nM | O=C(NCC1CCCN1)[C@H]1[C@H](C(=O)Nc2ncc(Br)s2)[C@@H]2CC[C@H]1C21CC1 (stereo partly drawn) [Example 416, (5R)—N^5-(5-Bromothiazol-2-yl)-(6R)—N^6-[(pyrrolidin-2-yl)-methyl]-(4S,7R)-[4,7-ethylene-spiro[2.4]heptane]-5,6-dicarboxamide] |
| 2.1 nM | 262 nM | O=C(NCC1CCCCN1)[C@H]1[C@H](C(=O)Nc2ncc(Br)s2)[C@@H]2CC[C@H]1C21CC1 (stereo partly drawn) [Example 417, (5R)—N^5-(5-Bromothiazol-2-yl)-(6R)—N^6-[(piperidin-2-yl)-methyl]-(4S,7R)-[4,7-ethylene-spiro[2.4]heptane]-5,6-dicarboxamide] |
| 0.45 nM | 339 nM | O=C(NCC1CCCNC1)[C@H]1[C@H](C(=O)Nc2ncc(Br)s2)[C@@H]2CC[C@H]1C21CC1 (stereo partly drawn) [Example 418, (5R)—N^5-(5-Bromothiazol-2-yl)-(6R)—N^6-[(piperidin-3-yl)-methyl]-(4S,7R)-[4,7-ethylene-spiro[2.4]heptane]-5,6-dicarboxamide] |
| 57 nM | 2290 nM | O=C(NC1CNC1)[C@H]1[C@H](C(=O)Nc2ncc(Br)s2)[C@@H]2CC[C@H]1C21CC1 [Example 419, (5R)—N^5-(5-Bromothiazol-2-yl)-(6R)—N^6-(azetidin-3-yl)-(4S,7R)-[4,7-ethylene-spiro[2.4]heptane]-5,6-dicarboxamide] |
